Data: patent US20230338374A1, “MDM2 INHIBITORS FOR USE IN THE TREATMENT OR PREVENTION OF HEMATOLOGIC NEOPLASM RELAPSE AFTER HEMATOPOIETIC CELL TRANSPLANTATION” (Novartis AG, priority 2020, published 2023)
Where two headings read alike, the source gives them in different places.

Columns and labels:
[1] = cited from earlier work
[2] = oral; no dose-limiting toxicities; cited from earlier work
[3] = cited from earlier work; remark: listed apart in the source
donor CD8^+ T-cells = experiment: T cell phenotyping in the GvL mouse model (WEHI-3B), spleen day 12; assay type: in vivo; conditions: allo-transplanted leukemia bearing BALB/c mice, vs vehicle
Text: FIG. 3: MDM2-inhibition promotes cytotoxicity and longevity of donor T cells • (a-h) Scatter plots and representative histograms show expression of Perforin (a, b), CD107a (c, d), IFN-γ (e, f), TNF-α (g, h) of CD8^+ T-cells isolated from spleen on day 12 following allo-HCT of WEHI-3B leukemia bearing BALB/c mice transplanted with C57BL/6 BM plus allogeneic C57BL/6 T-cells and treated with either vehicle or MDM2-inhibitor RG-7112. Mean value±SEM from n=14-19 biologically independent animals per group from 2 experiments are shown and p-values were calculated using two-sided Mann-Whitney U test. (m) Quantification of donor-derived (H-2kb+) TCRb+CD8+CD27+ TIM3+ T cells from allo-transplanted leukemia bearing BALB/c mice treated with RG-7112 or vehicle as indicated. (a) A representative flow cytometry histogram depicts the mean fluorescence intensity (MFI) and scatter plot showing fold-change of MFI for CD69 of all living donor (H-2kb^+) CD8^+ T cells from leukemia bearing BALB/c mice undergoing allo-HCT and being treated with vehicle. […] P-values were calculated using the two-sided Mann-Whitney U test. […] P-values were calculated using the two-sided Mann-Whitney U test. No difference in CD8 T-cells/all CD3 T-cells was detected. […] Mean value±SEM from n=14-19 biologically independent animals per group from 2 experiments are shown and p-value was calculated using two-sided Mann-Whitney U test. […]

[4] = single oral doses; GI toxicities the most common AEs; cited from earlier work
advanced solid tumor = conditions: cited from earlier work
[5] = combined with pimasertib, cited from earlier work
[6] = system: p53-knockdown OCI-AML3 cells; experiment: Expression in p53-knockdown cells (flow cytometry, western blot); assay type: cell-based, human; conditions: FIG. 9a
Procedure: MFI of control-treated cells was set as 1.0. P-values were calculated using the two-sided Student's unpaired t-test.
MFI of control-treated cells was set as 1.0. P-values were calculated using two-sided Student's unpaired t-test.
(a) Representative western blot (left panel) showing the expression of MDM2, p53 and loading control (GAPDH) in WT OCI-AML3 cells or p53 knockdown OCI-AML3 cells exposed to […] doxorubicin for 4 hours, when indicated. Right panel: Quantification of the relative intensity of the protein bands for each group.
P53 knockdown cells have been previously described (24). The p53 shRNA (p53.1224) had been cloned into a retroviral vector that co-expressed red fluorescent protein and which could be induced by doxycycline (24). […]
For excluding dead cells, the LIVE/DEAD Fixable Dead Cell Stain kit (Molecular Probes, USA) or LIVE/DEAD™ Fixable Aqua Dead Cell Stain Kit (Thermo Scientific) along with True Stain FcX (BioLegend) were used, according to the manufacturer's instructions. For all flurochrome-conjugated antibodies, optimal concentrations were determined using titration experiments. […] Data were acquired on the BD LSR Fortessa flow cytometer (BD Biosciences, Germany) and analyzed using Flow Jo software version 10.4 (Tree Star, USA). […]

OCI-AML3 cells = experiment: Killing assay with recombinant hTRAIL, viability by flow cytometry; assay type: cell-based, human; conditions: p53^−/− AML cells, FIG. 9e
Procedure: After 48 hours limiting concentrations of hTRAIL (TNFSF 10) were added for 24 hours, where indicated. The viability of the AML cells was measured by flow cytometry. […] P-values were calculated using two-sided Student's unpaired t-test.
Where indicated wildtype OCI-AML3 (WT) or p53 knockout (p53^−/−) OCI-AML3 were incubated with 1 μM MDM2-inhibitor RG7112. After 48 hours limiting concentrations of hTRAIL (TNFSF 10) were added for 24 hours where indicated. Viability of cells was measured by flow cytometry. […] P-values were calculated using two-sided Student's unpaired t-test.
For Killing assays using recombinant hTRAIL ((TNFSF 10, Apo-2L, CD253;) […]®; ENZO), the ligand was added for 24 h 0.5 μg/ml (1:1000) for optimal killing and 0.25 μg/ml (1:2000) for limiting killing conditions to OCI-AML3 target cells. Viability of cells was assessed by LIVE/DEAD™ Fixable Aqua Dead Cell Stain Kit (Thermo Scientific). Data were acquired on the BD LSR Fortessa flow cytometer (BD Biosciences) and analyzed using Flow Jo software version 10.4 (Tree Star).

CC(C)[C@@H](CS(=O)(=O)C(C)C)N1C(=O)[C@@](C)(CC(=O)O)C[C@H](c2cccc(Cl)c2)[C@H]1c1ccc(Cl)cc1 [AMG 232]
MTD ([1]; dose escalation discontinued because of gastrointestinal AEs): not reached
treatment-related AE decreased appetite ([1]; in vivo): 25%
treatment-related AE diarrhea ([1]; in vivo): 56%
treatment-related AE nausea ([1]; in vivo): 58%
treatment-related AE vomiting ([1]; in vivo): 33%

CCN1[C@@H](C(=O)NC23CCC(C(=O)O)(CC2)CC3)[C@H](c2cccc(Cl)c2F)[C@]2(C(=O)Nc3cc(Cl)ccc32)C12CCCCC2 [APG-115]
optimum dose [2]: 100 mg

COc1ncc(-c2nc3c(n2C(C)C)[C@H](c2ccc(Cl)cc2)N(c2cc(Cl)cn(C)c2=O)C3=O)c(OC)n1 [HDM201]
grade 3/4 adverse event anemia ([3]; Reg 1): 8%
grade 3/4 adverse event neutropenia ([3]; Reg 1): 26%
grade 3/4 adverse event thrombocytopenia ([3]; Reg 1): 24%
grade 3/4 adverse event anemia ([3]; Reg 2): 17%
grade 3/4 adverse event neutropenia ([3]; Reg 2): 14%
grade 3/4 adverse event thrombocytopenia ([3]; Reg 2): 28%

CCOc1cc(C(C)(C)C)ccc1C1=N[C@@](C)(c2ccc(Cl)cc2)[C@@](C)(c2ccc(Cl)cc2)N1C(=O)N1CCN(CCCS(C)(=O)=O)CC1 [RG7112]
CD8 T-cells/all CD3 T-cells (donor CD8^+ T-cells): No difference
tolerability [4]: generally well tolerated

CC(C)(C)C[C@@H]1N[C@@H](C(=O)N[C@H]2CC[C@H](O)CC2)[C@H](c2cccc(Cl)c2F)[C@]12C(=O)Nc1cc(Cl)ccc12 [SAR405838]
3-month progression free rate (advanced solid tumor; 74 patients treated): 32%
best response, patients (advanced solid tumor; 74 patients treated): 56%
safety profile (advanced solid tumor; patients with advanced solid tumors): acceptable safety profile
adverse event blood creatine phosphokinase ([5]; 26 patients): 77%
adverse event diarrhoea ([5]; 26 patients): 81%
adverse event nausea ([5]; 26 patients): 62%
adverse event vomiting ([5]; 26 patients): 62%
safety profile of the combination [5]: consistent with the safety profiles of both the drugs

COc1cccc2c1C(=O)c1c(O)c3c(c(O)c1C2=O)C[C@@](O)(C(=O)CO)C[C@@H]3O[C@H]1C[C@H](N)[C@H](O)[C@H](C)O1 [doxorubicin]
induction of p53 [6]: decreased

B1: TRAIL: recombinant hTRAIL (TNFSF 10, Apo-2L, CD253) (protein)
chain: TSEETISTVQEKQQNISPLVRERGPQRVAAHITGTRGRSNTLSSPNSKNEKALGRKINSWESSRSGHSFLSNLHLRNGELVIHEKGFYYIYSQTYFRFQEEIKENTKNDKQMVQYIYKYTSYPDPILLMKSARNSCWSKDAEYGLYSIYQGGIFELKENDRIFVSVTNEHLIDMDHEASFFGAFLVG
apoptosis induced (OCI-AML3 cells): less apoptosis
